Assay results published in ChEMBL document CHEMBL1909294, “Translating clinical findings into knowledge in drug safety evaluation--drug induced liver injury prediction system (DILIps)” (PLoS Comput Biol, 2011).

Tests used:
Hepatotoxicity [1] = tested on: Hepatotoxicity;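 for HepSE cirrhosis: cirrhosis hepatic side effect score taken from the DILIps (drug-induced liver injury prediction) training set; call rule not given here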;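 for HepSE elevated liver function tests: hepatic side effect score for raised liver function tests, as recorded in the DILIps training set used for predicting drug-induced liver injury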; for HepSE hepatic failure: call rule not given here;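 for HepSE hepatic necrosis: score of hepatic side effects for hepatic necrosis, drawn from the training data of DILIps, a prediction system for drug-induced liver injury; call rule not given here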;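 for HepSE jaundice: Jaundice-related hepatic side-effect score drawn from the training data of the DILIps (drug-induced liver injury prediction system); call rule not given here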;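 for HepSE liver function tests abnormal: hepatic side effect score taken from the DILIps (drug-induced liver injury prediction system) training data, here covering abnormal liver function test findings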
Hepatotoxicity [2] = tested on: Hepatotoxicity; remark: listed apart in the source;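 for HepSE cirrhosis: cirrhosis hepatic side effect score taken from the DILIps (drug-induced liver injury prediction) training set; call rule not given here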;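 for HepSE elevated liver function tests: hepatic side effect score for raised liver function tests, as recorded in the DILIps training set used for predicting drug-induced liver injury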; for HepSE hepatic failure: call rule not given here;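 for HepSE hepatic necrosis: score of hepatic side effects for hepatic necrosis, drawn from the training data of DILIps, a prediction system for drug-induced liver injury; call rule not given here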;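 for HepSE jaundice: Jaundice-related hepatic side-effect score drawn from the training data of the DILIps (drug-induced liver injury prediction system); call rule not given here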;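 for HepSE liver function tests abnormal: hepatic side effect score taken from the DILIps (drug-induced liver injury prediction system) training data, here covering abnormal liver function test findings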
Hepatotoxicity [3] = tested on: Hepatotoxicity; remark: listed apart in the source;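 for HepSE cirrhosis: cirrhosis hepatic side effect score taken from the DILIps (drug-induced liver injury prediction) training set; call rule not given here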;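 for HepSE elevated liver function tests: hepatic side effect score for raised liver function tests, as recorded in the DILIps training set used for predicting drug-induced liver injury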; for HepSE hepatic failure: call rule not given here;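 for HepSE hepatic necrosis: score of hepatic side effects for hepatic necrosis, drawn from the training data of DILIps, a prediction system for drug-induced liver injury; call rule not given here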;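 for HepSE jaundice: Jaundice-related hepatic side-effect score drawn from the training data of the DILIps (drug-induced liver injury prediction system); call rule not given here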;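 for HepSE liver function tests abnormal: hepatic side effect score taken from the DILIps (drug-induced liver injury prediction system) training data, here covering abnormal liver function test findings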
Hepatotoxicity [4] = tested on: Hepatotoxicity; remark: listed apart in the source;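 for HepSE cirrhosis: cirrhosis hepatic side effect score taken from the DILIps (drug-induced liver injury prediction) training set; call rule not given here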;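 for HepSE elevated liver function tests: hepatic side effect score for raised liver function tests, as recorded in the DILIps training set used for predicting drug-induced liver injury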; for HepSE hepatic failure: call rule not given here;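 for HepSE hepatic necrosis: score of hepatic side effects for hepatic necrosis, drawn from the training data of DILIps, a prediction system for drug-induced liver injury; call rule not given here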;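 for HepSE jaundice: Jaundice-related hepatic side-effect score drawn from the training data of the DILIps (drug-induced liver injury prediction system); call rule not given here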;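 for HepSE liver function tests abnormal: hepatic side effect score taken from the DILIps (drug-induced liver injury prediction system) training data, here covering abnormal liver function test findings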
Hepatotoxicity [5] = tested on: Hepatotoxicity; remark: listed apart in the source; for HepSE hepatic failure: call rule not given here
Hepatotoxicity [6] = tested on: Hepatotoxicity; remark: listed apart in the source; for HepSE hepatic failure: call rule not given here
Hepatotoxicity [7] = tested on: Hepatotoxicity; remark: listed apart in the source
Hepatotoxicity [8] = tested on: Hepatotoxicity; remark: listed apart in the source
Hepatotoxicity [9] = tested on: Hepatotoxicity; remark: listed apart in the source
Hepatotoxicity [10] = tested on: Hepatotoxicity; remark: listed apart in the source
Hepatotoxicity [11] = tested on: Hepatotoxicity; remark: listed apart in the source
Hepatotoxicity [12] = tested on: Hepatotoxicity; remark: listed apart in the source
Hepatotoxicity [13] = tested on: Hepatotoxicity; remark: listed apart in the source
Hepatotoxicity [14] = tested on: Hepatotoxicity; remark: listed apart in the source

Row | Structure (SMILES) | HepSE_hepatic necrosis (Hepatotoxicity [1]) | HepSE_jaundice (Hepatotoxicity [2]) | HepSE_elevated liver function tests (Hepatotoxicity [3]) | HepSE_liver function tests abnormal (Hepatotoxicity [4]) | HepSE_bilirubinemia (Hepatotoxicity [5]) | HepSE_cirrhosis (Hepatotoxicity [6]) | HepSE_hepatic failure (Hepatotoxicity [7]) | HepSE_cholecystitis (Hepatotoxicity [8]) | HepSE_hepatitis (Hepatotoxicity [9]) | HepSE_liver disease (Hepatotoxicity [10]) | HepSE_Combined Scores (Hepatotoxicity [11]) | HepSE_cholelithiasis (Hepatotoxicity [12]) | HepSE_liver fatty (Hepatotoxicity [13]) | HepSE_hepatomegaly (Hepatotoxicity [14]) | further results
1 | C[C@@H](NCCCc1cccc(C(F)(F)F)c1)c1cccc2ccccc12 | 0 | 0 | 0 | 0 | 0 | 0 | 0 | 0 | 0 | 0 | 0 | 0 | 0 | 0 | 
2 | O=c1[nH]c2ccccc2n1CCCN1CCC(n2c(=O)[nH]c3cc(Cl)ccc32)CC1 [DOMPERIDONE] | 0 | 0 | 0 | 0 | 0 | 0 | 0 | 0 | 0 | 0 | 0 | 0 | 0 | 0 | 
3 | NC(N)=Nc1nc(CSCCC(N)=NS(N)(=O)=O)cs1 [FAMOTIDINE] |  |  |  |  |  |  |  |  |  |  |  |  |  |  | HepSE_hepatic necrosis (Hepatotoxicity [1]; Liver): 0; HepSE_jaundice (Hepatotoxicity [2]; Liver): 1; HepSE_elevated liver function tests (Hepatotoxicity [3]; Liver): 0; HepSE_liver function tests abnormal (Hepatotoxicity [4]; Liver): 0; HepSE_bilirubinemia (Hepatotoxicity [5]; Liver): 0; HepSE_cirrhosis (Hepatotoxicity [6]; Liver): 0; HepSE_hepatic failure (Hepatotoxicity [7]; Liver): 0; HepSE_cholecystitis (Hepatotoxicity [8]; Liver): 0; HepSE_hepatitis (Hepatotoxicity [9]; Liver): 0; HepSE_liver disease (Hepatotoxicity [10]; Liver): 0; HepSE_Combined Scores (Hepatotoxicity [11]; Liver): 1; HepSE_cholelithiasis (Hepatotoxicity [12]; Liver): 0; HepSE_liver fatty (Hepatotoxicity [13]; Liver): 0; HepSE_hepatomegaly (Hepatotoxicity [14]; Liver): 0
4 | CC#C[C@]1(O)CC[C@H]2[C@@H]3CCc4cc(O)ccc4[C@H]3CC[C@@]21C [ESTROGEN] | 0 | 1 | 0 | 0 | 0 | 0 | 0 | 0 | 0 | 0 | 1 | 0 | 0 | 0 | 
5 | NCCc1ccc(O)c(O)c1 [DOPAMINE] |  |  |  |  |  |  |  |  |  |  |  |  |  |  | HepSE_hepatic necrosis (Hepatotoxicity [1]; Liver): 0; HepSE_jaundice (Hepatotoxicity [2]; Liver): 0; HepSE_elevated liver function tests (Hepatotoxicity [3]; Liver): 0; HepSE_liver function tests abnormal (Hepatotoxicity [4]; Liver): 0; HepSE_bilirubinemia (Hepatotoxicity [5]; Liver): 0; HepSE_cirrhosis (Hepatotoxicity [6]; Liver): 0; HepSE_hepatic failure (Hepatotoxicity [7]; Liver): 0; HepSE_cholecystitis (Hepatotoxicity [8]; Liver): 0; HepSE_hepatitis (Hepatotoxicity [9]; Liver): 0; HepSE_liver disease (Hepatotoxicity [10]; Liver): 0; HepSE_Combined Scores (Hepatotoxicity [11]; Liver): 0; HepSE_cholelithiasis (Hepatotoxicity [12]; Liver): 0; HepSE_liver fatty (Hepatotoxicity [13]; Liver): 0; HepSE_hepatomegaly (Hepatotoxicity [14]; Liver): 0
6 | CCCCC1=NC2(CCCC2)C(=O)N1Cc1ccc(-c2ccccc2-c2nnn[nH]2)cc1 [IRBESARTAN] | 0 | 1 | 1 | 0 | 0 | 0 | 0 | 0 | 1 | 0 | 3 | 0 | 0 | 0 | 
7 | Nc1nc2ncc(CNc3ccc(C(=O)N[C@@H](CCC(=O)O)C(=O)O)cc3)nc2c(=O)[nH]1 [FOLIC ACID] | 0 | 0 | 0 | 0 | 0 | 0 | 0 | 0 | 0 | 0 | 0 | 0 | 0 | 0 | 
8 | CCC(C)n1ncn(-c2ccc(N3CCN(c4ccc(OCC5COC(Cn6cncn6)(c6ccc(Cl)cc6Cl)O5)cc4)CC3)cc2)c1=O (configuration not stated) [ITRACONAZOLE] | 0 | 1 | 0 | 1 | 1 | 1 | 1 | 0 | 1 | 1 | 7 | 0 | 0 | 0 | 
9 | COc1cc(C)c(/C=C/C(C)=C/C=C/C(C)=C/C(=O)O)c(C)c1C [ACITRETIN] | 0 | 1 | 1 | 0 | 0 | 0 | 0 | 0 | 1 | 0 | 3 | 0 | 0 | 0 | 
10 | C[C@]12CCC(=O)C=C1CC[C@@H]1[C@@H]2CC[C@@]2(C)[C@H]1CC[C@]2(C)O [METHYLTESTOSTERONE] | 0 | 1 | 0 | 0 | 0 | 0 | 0 | 0 | 0 | 0 | 1 | 0 | 0 | 0 | 
11 | COc1cc(Br)c(C[N+]2(CCOCCC3CCC4CC3C4(C)C)CCOCC2)cc1OC.[Br-] (configuration not stated) [PINAVERIUM BROMIDE] |  |  |  |  |  |  |  |  |  |  |  |  |  |  | HepSE_hepatic necrosis (Hepatotoxicity [1]; Liver): 0; HepSE_jaundice (Hepatotoxicity [2]; Liver): 0; HepSE_elevated liver function tests (Hepatotoxicity [3]; Liver): 0; HepSE_liver function tests abnormal (Hepatotoxicity [4]; Liver): 0; HepSE_bilirubinemia (Hepatotoxicity [5]; Liver): 0; HepSE_cirrhosis (Hepatotoxicity [6]; Liver): 0; HepSE_hepatic failure (Hepatotoxicity [7]; Liver): 0; HepSE_cholecystitis (Hepatotoxicity [8]; Liver): 0; HepSE_hepatitis (Hepatotoxicity [9]; Liver): 0; HepSE_liver disease (Hepatotoxicity [10]; Liver): 0; HepSE_Combined Scores (Hepatotoxicity [11]; Liver): 0; HepSE_cholelithiasis (Hepatotoxicity [12]; Liver): 0; HepSE_liver fatty (Hepatotoxicity [13]; Liver): 0; HepSE_hepatomegaly (Hepatotoxicity [14]; Liver): 0
12 | NCCCC[C@H](N[C@@H](CCc1ccccc1)C(=O)O)C(=O)N1CCC[C@H]1C(=O)O [LISINOPRIL ANHYDROUS] | 0 | 1 | 0 | 0 | 0 | 0 | 1 | 0 | 1 | 0 | 3 | 0 | 0 | 0 | 
13 | CCOC(=O)C1=C[C@@H](OC(CC)CC)[C@H](NC(C)=O)[C@@H](N)C1 [OSELTAMIVIR] | 0 | 0 | 0 | 1 | 0 | 0 | 1 | 0 | 1 | 0 | 3 | 0 | 0 | 0 | 
